Test results published in patent publication US11685904B2 (priority 2019, dated 2023).
“Also recorded” adds a separate entry of the source.

Key:
[1] = test system: vaccinia virus expressing the TK.007 HSV-TK variant (IGV-035); parameters: species or system BALB/c mice; details: mouse, in vivo
[2] = test system: vaccinia virus expressing the TK.007 HSV-TK variant (IGV-077); parameters: species or system mice; details: mouse, in vivo

## Nc1nc(O)c2ncn(COC(CO)CO)c2n1 [ganciclovir]
[1]
  average lesion size compared to the vehicle (no vaccinia virus) group: comparable to the group treated with vehicle
  healing of topical lesions caused by vaccinia virus: healed faster
  lesion size compared to the non-treated group: significantly smaller
  virus shedding from the tail scarification site: reduced virus shedding
[2]
  virus replication in tumors (plaque assay): significantly reduced; also recorded: completely inhibited
  virus-mediated GFP expression in tumors (immunohistochemistry): Low levels; also recorded: no virus-mediated GFP expression was detected
